From publication PMC9196629, “Synthesis, Characterization and Antitumor Mechanism Investigation of Heterometallic Ru(Ⅱ)-Re(Ⅰ) Complexes” (Frontiers in Chemistry, 2022)

How the values were obtained:
Assay type in all cases: cell-based, human
[1] = system: A549R (cisplatin-resistant A549); test: MTT cytotoxicity assay; conditions: for IC50: MTT, 48 h incubation, mean ± SD; for fold greater ability to kill A549R cells than cisplatin: ratio of IC50 values, cisplatin / complex
Method: The anticancer activities of RuRe-1 and RuRe-2 against four cancer cell lines: HeLa (human cervical cancer cells), HepG2 (human hepatocellular carcinoma), A549 (human lung cancer cells), A549R (cisplatin-resistant A549) and one normal cell line LO2 (human normal liver cells) were determined by 3-(4,5-dimethylthiazole)-2,5-diphenyltetraazolium bromide (MTT) assay, while the mononuclear complexes Ru-1, Ru-2, Re-1 and cisplatin were selected as controls. […] And the in vitro antiproliferative efficacies of the compounds against HeLa cells were in the following order: RuRe-2 > RuRe-1 > Re-1 > cisplatin > Ru-1 > Ru-2. […] The anticancer activity of the mononuclear rhenium complex Re-1 was between 5.6 μM and 8.0 μM, which contributed the most to the antitumor activities of the heteronuclear Ru(II)-Re(Ⅰ) metal complexes.
Cell lines and culture conditions. HeLa, HepG2, A549, A549R and LO2 cells were purchased from Nanjing KeyGen Biotech., and cultured in DMEM or RPMI 1640 complete medium at 37 ℃ with 5% CO2 atmosphere.
In vitro cytotoxicity assay. The anti-tumor activity of mononuclear complexes Ru-1, Ru-2, Re-1 and heteronuclear RuRe-1 and RuRe-2 were determined by MTT (5 mg/mL) assay. Cells were placed in 96-well plates and cultured for 24 h at 37 ℃ in a 5% CO2 incubator. After replacing the culture medium with fresh medium containing RuRe-1 or RuRe-2 at the indicated concentration, cells were cultured for 48 h. 20 μL MTT was added to each well 4 h before the end of the incubation. Subsequently, the liquid in the cell wells was poured out and 150 μL/well DMSO was added to dissolve the MTT-formazan crystals. The absorbance of living cells at 570 nm was detected.

[2] = system: HeLa cells; test: Annexin V-FITC/PI double-staining apoptosis assay by flow cytometry; conditions: 24 h, control 1.81%
Source text: The ability of RuRe-1 and RuRe-2 to induce apoptosis in HeLa cells was further verified using Annexin V-FITC/PI (FITC: fluorescein isothiocyanate; PI: propidium iodide) double-staining. In the early stage of apoptosis, the surface of the cell membrane is […], at which point the phosphatidylserine on the surface of the apoptotic cell flips from the inner cell membrane to the outer cell membrane, where it can be labelled by Annexin V ([Jan and Chaudhry, 2019]). The membrane permeability of PI is poor and thus only necrotic cells can be labelled ([Zec et al., 2014]).
FIGURE 3 RuRe-1 and RuRe-2 induced HeLa cells apoptosis measured by flow cytometry with Annexin V/PI staining. The incubation time of the compounds was 24 h. […]

[3] = system: PARP; test: Western blot of apoptosis-related proteins; conditions: HeLa, different concentrations, 24 h
Method: (§1) Cysteine aspartate proteases play an important role in apoptosis, especially caspase-3 protein, which is one of the most important execution factors in the apoptotic pathway ([Wang X. et al., 2021]). The poly(ADP-ribose) polymerase (PARP) is associated with DNA repair and guardianship of genetic integrity ([Pandey and Black, 2021]). After treating HeLa cells with different concentrations of RuRe-1 or RuRe-2 for 24 h, the expression of caspase-3 and the caspase substrate PARP apoptotic protein were detected by western blot. […] It was further shown that RuRe-1 and RuRe-2 are activators of caspase-3, which can trigger apoptosis in HeLa cells.
(§2) FIGURE 4 Expression of apoptosis-related protein (caspase-3 and PARP) in HeLa cells treated with RuRe-1 and RuRe-2 for 24 h.
(§3) Western blot analysis. HeLa cells were plated into the 6-well plates, after treating with different doses of RuRe-1 and RuRe-2 for 24 h, the cells were collected and lysed. The protein concentration was determined using the BCA assay kit. Equal amounts of protein were ran on SDS-PAGE and then transferred to the PVDF membrane.

[4] = system: caspase-3; test: Western blot of apoptosis-related proteins; conditions: HeLa, different concentrations, 24 h
Method: as §1, §2, §3

F[P-](F)(F)(F)(F)F.F[P-](F)(F)(F)(F)F.F[P-](F)(F)(F)(F)F.[C-]#[O+].[C-]#[O+].[C-]#[O+].[Re+].[Ru+2].c1ccc(-c2ccccn2)nc1.c1ccc(-c2ccccn2)nc1.c1ccc(-c2ccnc3c2ccc2c(-c4ccccc4)ccnc23)cc1.c1cnc2c(c1)c1nc(-c3ccncc3)[nH]c1c1cccnc12 [RuRe-1, [Ru(bpy)2LRe(CO)3(DIP)](PF6)3]
IC50 [1]: 10.4 ± 1.2 µM | fold greater ability to kill A549R cells than cisplatin [1]: approximately 8.7 fold | percentage of apoptotic cells (early apoptotic + late apoptotic) ([2]; 12.4 μM): 22.38% | cleavage of PARP (western blot) [3]: induced the cleavage | cleavage of caspase-3 (western blot) [4]: induced the cleavage

F[P-](F)(F)(F)(F)F.F[P-](F)(F)(F)(F)F.F[P-](F)(F)(F)(F)F.[C-]#[O+].[C-]#[O+].[C-]#[O+].[Re+].[Ru+2].c1ccc(-c2ccnc3c2ccc2c(-c4ccccc4)ccnc23)cc1.c1cnc2c(c1)c1nc(-c3ccncc3)[nH]c1c1cccnc12.c1cnc2c(c1)ccc1cccnc12.c1cnc2c(c1)ccc1cccnc12 [RuRe-2, [Ru(phen)2LRe(CO)3(DIP)](PF6)3]
IC50 [1]: 16.7 ± 0.8 µM | fold greater ability to kill A549R cells than cisplatin [1]: ~5.4 fold | percentage of apoptotic cells (early apoptotic + late apoptotic) ([2]; 10.0 μM): 22.26% | cleavage of PARP (western blot) [3]: induced the cleavage | cleavage of caspase-3 (western blot) [4]: induced the cleavage
